Results as given in patent publication US20030125253A1, “Novel protein, process for producing the same and use therof” (priority 2002, published 2003).

Columns and labels:
Type in all cases: cell-based, human
SSP1 mRNA in HepG2 cell = experiment: Change of SSP1 mRNA expression in treated HepG2 cells (TaqMan PCR); conditions: 24 hours in serum free D-MEM medium with the agent, 25-OH 5 μg/ml, βVLDL 100 μg-TC/ml, HPβCD 5 mM, 10% FBS
Protocol: For conducting more detailed analysis of SSP1 expression, TaqMan PCR conditions were set. The primers used were Upper Primer (SEQ ID NO: 54) and Lower Primer (SEQ ID NO: 55), and the probe used for detection was shown by SEQ ID NO: 56. In TaqMan PCR, 250 nM of Upper Primer, 250 nM of Lower Primer, 75 nM of the probe and template DNA were mixed with TaqMan Universal Mixture, and SSP1 gene was quantified by real time PCR of 40 cycle of 15 seconds at 95° C. and 60 seconds at 60° C.
After HepG2 cell was treated as shown in FIG. 7 for one day, RNA was extracted to perform a reverse transcription using oligo-dT as a primer. Then, change in the expression amount of SSP1 mRNA was analyzed using the quantification system of expression amount of SSP1 mRNA as shown in Example 6. Specifically, HepG2 cells were cultured on a 24-well plate, and incubated for 24 hours in a serum free D-MEM medium in the presence of 10% FBS (10% FBS), 5 μg/ml of 25-hydroxycholesterol (25-OH), 100 μg-TC/ml of rabbit βVLDL (βVLDL), 1 μM of Atrvastatin (ATOS), 5 mM hydroxypropyl-β-cyclodextiin (HPβCD), 10 μM progesterone (Progesterone) or 100 μM dibutyl-cyclic AMP (db-cAMP). The expression amount of SSP1 mRNA in RNA extracted from these cells was measured as a rate (%) to GAPDH mRNA measured as the internal standard.

SSP2 mRNA in IMR-32 cell = experiment: Differentiation-dependent induction of SSP2 mRNA expression in IMR-32 cells (TaqMan PCR); conditions: 10 μM BrDU, cultured for 14 days, RNA at 7 and 14 days, cells differentiated to neuron in morphology
Protocol: For conducting more detailed analysis of SSP2 expression, TaqMan PCR conditions were set. The primers used were Upper Primer (SEQ ID NO: 57) and Lower Primer (SEQ ID NO: 58), and the probe used for detection was shown by SEQ ID NO: 59. In TaqMan PCR, 250 nM of Upper Primer, 250 nM of Lower Primer, 75 nM of the probe and template DNA were mixed with TaqMan Universal Mixture, and SSP2 gene was quantified by real time PCR of 40 cycle of 15 seconds at 95° C. and 60 seconds at 60° C. IMR-32 cells were cultured overnight at […] cells/well (6 well plate), and cultured for 14 days under four different conditions of 1 mM dibutyl cycle AMP (db-cAMP), 10 μM Bromo deoxyuridine (BrDU), 1 mM db-cAMP/10 μM BrDU and no differentiation-inducing agent. RNA was extracted from cells at 7 days and 14 days, then, SSP2 mRNA was quantified by TaqMan PCR. Induction of expression of SSP2 mRNA was recognized in cells which were differentiated to neuron in terms of morphology by 10 μM BrDU (FIG. 8).

[1] = tested on: stable SSP1-overexpressing HepG2 cell; experiment: ApoB lipoprotein secretion in stable SSP1-overexpressing HepG2 cells (sandwich EIA); conditions: SSP1 stable expression HepG2 cell strains vs parent HepG2, 24 hours, 5% LPDS + oleate (BSA complex)
Protocol: SSP1 gene was subcloned into pcDNA3.1(+)-myc vector (Invitrogen), and the thus obtained expression plasmid for eucaryotic cell having the C-terminal Myc-tag was transfected into HepG2 cells by a lipofection method, and these cells were cultured in the presence of 500 ug/ml G418 to obtain G418-resistant strains. From these strains, 4 stable cell strains highly expressing SSP1 mRNA were obtained using the quantification, of expression amount of SSP1 mRNA by TaqMan PCR. A gene encoding amino acid no. 33-273 of SSP1 protein was subcloned into pET 21(+) vector (Novagen), and using the SSP1 partial protein produced in Escherichia coli as an antigen, a polyclonal antibody was prepared according to an ordinary method. The amino acid sequence of the antigen protein is shown by SEQ ID NO: (antigen AP-1). Using this antibody (AP-1), the expression of SSP1 protein in cell-extract of the four stable SSP1-expressing cell strains was investigated by a Western blotting method. […] For quantification of ApoB lipoprotein, a sandwich EIA method using an anti-human apoB goat polyclonal antibody and an anti-human apoB mouse monoclonal antibody was carried out. In the quantification, human LDL was used as a standard substance, and the concentration of ApoB lipoprotein secreted in the supernatant was represented as an equivalent human LDL value. […]

Compound: C[C@H](CCCC(C)(C)O)[C@H]1CC[C@H]2[C@@H]3CC=C4C[C@@H](O)CC[C@]4(C)[C@H]3CC[C@]12C [25OH, 25-hydroxycholesterol]
- change in the expression amount of SSP1 mRNA (rate to GAPDH mRNA) (SSP1 mRNA in HepG2 cell): decrease

Compound: O=c1[nH]c(=O)n([C@H]2C[C@H](O)[C@@H](CO)O2)cc1Br [BrDU, Bromo deoxyuridine]
- induction of expression of SSP2 mRNA (SSP2 mRNA in IMR-32 cell): Induction

Compound: CCCCCCCC/C=C\CCCCCCCC(=O)O [oleic acid]
- activity to promote apoB lipoprotein secretion by addition of oleic acid [1]: disappeared

Compound: hydroxypropyl-β-cyclodextiin [HPβCD]
- change in the expression amount of SSP1 mRNA (rate to GAPDH mRNA) (SSP1 mRNA in HepG2 cell): increase
